Assay results published in patent US7402691B2, “Malononitrile compounds and their use as pesticides” (Sumitomo Chemical Company, Limited, priority 2001, dated 2008).

What follows are molecules tested on Musca domestica (assay: Pesticidal test against Musca domestica, filter paper with sucrose bait (Test Example 6)). Conditions: 500 ppm, 0.7 ml on filter paper, ten female adults, after 24 hours, read-out: mortality.
Format: in vivo
Protocol: Ten female adults of Musca domestics (house fly) were set free in the polyethylene cup, which was then kept covered. After 24 hours, their survival was examined to determine the mortality.

**Q.** How did the mortality at 500 ppm turn out when `N#CC(C#N)(CCC(F)=C(F)F)Cc1ccccc1` [Compound 4, 2-benzyl-2-(3,4,4-trifluoro-3-butenyl)malononitrile] was run?
**A.** 100%

**Q.** How did the mortality at 500 ppm turn out when `N#CC(C#N)(CCC(F)(F)F)Cc1c(Cl)cc(C(F)(F)F)cc1Cl` [Compound 7, 2-(2,6-dichloro-4-(trifluoromethyl)benzyl)-2-(3,3,3-trifluoropropyl)malononitrile] was run?
**A.** 100%

**Q.** How did the mortality at 500 ppm turn out when `N#CC(C#N)(CCC(F)(F)F)Cc1ccccc1` [Compound 12, 2-benzyl-2-(3,3,3-trifluoropropyl)malononitrile] was run?
**A.** 100%

**Q.** How did the mortality at 500 ppm turn out when `N#CC(C#N)(CCC(F)(F)F)Cc1ccc(SC(F)(F)F)cc1` [Compound 13, 2-(4-(trifluoromethylthio)benzyl)-2-(3,3,3-trifluoropropyl)malononitrile] was run?
**A.** 100%

**Q.** With `N#CC(C#N)(CCC(F)(F)F)Cc1ccc(F)cc1` [Compound 16, 2-(4-fluorobenzyl)-2-(3,3,3-trifluoropropyl)malononitrile] as the molecule, how does the mortality at 500 ppm read?
**A.** 100%

**Q.** With `N#CC(C#N)(CCC(F)(F)F)Cc1ccc([N+](=O)[O-])cc1` [Compound 18, 2-(4-nitrobenzyl)-2-(3,3,3-trifluoropropyl)malononitrile] as the molecule, how does the mortality at 500 ppm read?
**A.** 100%

**Q.** `N#CC(C#N)(CCC(F)(F)F)Cc1ccc(I)cc1` [Compound 26, 2-(4-iodobenzyl)-2-(3,3,3-trifluoropropyl)malononitrile] was tested. Which mortality at 500 ppm did it give?
**A.** 100%

**Q.** How did the mortality at 500 ppm turn out when `C=Cc1ccc(CC(C#N)(C#N)CCC(F)(F)F)cc1` [Compound 27, 2-(3,3,3-trifluoropropyl)-2-(4-vinylbenzyl)malononitrile] was run?
**A.** 100%

**Q.** With `CCc1ccc(CC(C#N)(C#N)CCC(F)(F)F)cc1` [Compound 31, 2-(4-ethylbenzyl)-2-(3,3,3-trifluoropropyl)malononitrile] as the molecule, how does the mortality at 500 ppm read?
**A.** 100%

**Q.** Which mortality at 500 ppm does the source give for `CC(C)(C)c1ccc(CC(C#N)(C#N)CCC(F)(F)F)cc1` [Compound 33, 2-(4-t-butylbenzyl)-2-(3,3,3-trifluoropropyl)malononitrile] here?
**A.** 100%

**Q.** With `CC(C)c1ccc(CC(C#N)(C#N)CCC(F)(F)F)cc1` [Compound 35, 2-(4-isopropylbenzyl)-2-(3,3,3-trifluoropropyl)malononitrile] as the molecule, how does the mortality at 500 ppm read?
**A.** 100%

**Q.** `CC(c1ccc(Cl)cc1)C(C#N)(C#N)CCC(F)(F)F` (centres unmarked) [Compound 42, 2-(1-(4-chlorophenyl)ethyl)-2-(3,3,3-trifluoropropyl)malononitrile] was tested. Which mortality at 500 ppm did it give?
**A.** 100%

**Q.** How did the mortality at 500 ppm turn out when `N#CC(C#N)(CCC(F)(F)F)Cc1ccc(F)cc1Cl` [Compound 44, 2-(2-chloro-4-fluorobenzyl)-2-(3,3,3-trifluoropropyl)malononitrile] was run?
**A.** 100%

**Q.** Which mortality at 500 ppm does the source give for `Cc1cc(CC(C#N)(C#N)CCC(F)(F)F)ccc1[N+](=O)[O-]` [Compound 45, 2-(3-methyl-4-nitrobenzyl)-2-(3,3,3-trifluoropropyl)malononitrile] here?
**A.** 100%

**Q.** Which mortality at 500 ppm does the source give for `N#Cc1ccc(CC(C#N)(C#N)CCF)cc1` [Compound 46, 2-(4-cyanobenzyl)-2-(2-fluoroethyl)malononitrile] here?
**A.** 100%

**Q.** How did the mortality at 500 ppm turn out when `N#CC(C#N)(CCC(F)=C(F)F)Cc1ccc(OC(F)(F)F)cc1` [Compound 49, 2-(3,4,4-trifluoro-3-butenyl)-2-(4-(trifluoromethoxy)benzyl)malononitrile] was run?
**A.** 100%

**Q.** For `CC(c1ccc(Cl)cc1)C(C#N)(C#N)CCF` (centres unmarked) [Compound 53, 2-(1-(4-chlorophenyl)ethyl)-2-(2-fluoroethyl)malononitrile], which mortality at 500 ppm is on record?
**A.** 100%

**Q.** For `N#CC(C#N)(CCC(F)=C(F)F)Cc1ccc(SC(F)(F)F)cc1` [Compound 54, 2-(3,4,4-trifluoro-3-butenyl)-2-(4-(trifluoromethylthio)benzyl)malononitrile], which mortality at 500 ppm is on record?
**A.** 100%

**Q.** For `N#CC(C#N)(CCF)Cc1ccc(F)cc1` [Compound 59, 2-(4-fluorobenzyl)-2-(2-fluoroethyl)malononitrile], which mortality at 500 ppm is on record?
**A.** 100%

**Q.** How did the mortality at 500 ppm turn out when `N#CC(C#N)(CCC(F)(F)F)Cc1cc(F)cc(F)c1` [Compound 71, 2-(3,5-difluorobenzyl)-2-(3,3,3-trifluoropropyl)malononitrile] was run?
**A.** 100%
